Test system: Plasmodium berghei
Assay: Luciferase/luciferin-expressing antifolate-resistant parasites were used to infect a culture of HepG2 cells that were pre-incubated with compounds. Infected hepatocytes emit light due to the luciferase reaction. Assay results are presented as the percent inhibition of light emission compared to control. […]
Type: functional
Conditions: sporozoite; for IC90: read-out: LUCIFERASE INFECTION ASSAY - IC90

SMILES | IC90 | other results
CCCc1nc2oc3cc(OC)ccc3c(=O)c2c(=O)n1Cc1ccco1 | > 9.01 µM | IC50 (PBLUC_HILL_SLOPE 1.9, PBLUC_R_SQUARED 0.121, read-out: LUCIFERASE INFECTION ASSAY - IC50): 5.6 µM
COc1ccc(CCNC(=S)NC(=O)c2c(-c3ccccc3Cl)noc2C)cc1OC | > 7.17 µM | IC50 (PBLUC_HILL_SLOPE 1.8, PBLUC_R_SQUARED 0.103, read-out: LUCIFERASE INFECTION ASSAY - IC50): > 7.17 µM
CC1=CC(C)(C)N(C(=O)c2ccc(F)cc2)c2cc3c(cc21)OCO3 | > 9.72 µM | IC50 (PBLUC_HILL_SLOPE 1.83, PBLUC_R_SQUARED 0.549, read-out: LUCIFERASE INFECTION ASSAY - IC50): 6.14 µM
Cc1ccc(Oc2c(C)nc(-c3ccccc3)nc2O)cc1 | 1.76 µM | IC50 (PBLUC_HILL_SLOPE 1.81, PBLUC_R_SQUARED 0.898, read-out: LUCIFERASE INFECTION ASSAY - IC50): 0.524 µM
c1cc(-c2cn3c(-c4ccc5c(c4)OCO5)cnc3cn2)cs1 | > 10.3 µM | IC50 (PBLUC_HILL_SLOPE 1.82, PBLUC_R_SQUARED 0.105, read-out: LUCIFERASE INFECTION ASSAY - IC50): > 10.3 µM
CC(C)N1CCN(c2ccc(-c3cn4c(-c5ccc(O)cc5)cnc4cn3)cc2)CC1 | > 7.98 µM | IC50 (PBLUC_HILL_SLOPE 1.81, PBLUC_R_SQUARED 0.0513, read-out: LUCIFERASE INFECTION ASSAY - IC50): > 7.98 µM
COc1ccc(-c2cnc3cnc(-c4ccc(N)nc4)cn23)cc1 | 8 µM | IC50 (PBLUC_HILL_SLOPE 1.84, PBLUC_R_SQUARED 0.648, read-out: LUCIFERASE INFECTION ASSAY - IC50): 2.43 µM
CN(C)c1ccc(-c2cnc3cnc(-c4ccc(CNc5ccccc5)cc4)cn23)cc1 | > 7.87 µM | IC50 (PBLUC_HILL_SLOPE 1.8, PBLUC_R_SQUARED 0.529, read-out: LUCIFERASE INFECTION ASSAY - IC50): 4.22 µM
Cc1ccc(-c2cnc3ccc(NCc4cccs4)nn23)cc1 | > 10.3 µM | IC50 (PBLUC_HILL_SLOPE 1.88, PBLUC_R_SQUARED 0.642, read-out: LUCIFERASE INFECTION ASSAY - IC50): 4.8 µM
CC(=O)c1ccc(-c2cnc3sc(NCCN4CCOCC4)nn23)s1 | > 8.74 µM | IC50 (PBLUC_HILL_SLOPE 1.89, PBLUC_R_SQUARED 0.43, read-out: LUCIFERASE INFECTION ASSAY - IC50): 5.97 µM
Cn1c(Nc2cccc(C(F)(F)F)c2)nc2cnc(-c3ccc(N)nc3)cc21 | > 10 µM | IC50 (PBLUC_HILL_SLOPE 1.84, PBLUC_R_SQUARED 0.0919, read-out: LUCIFERASE INFECTION ASSAY - IC50): > 10 µM
COc1ccc(NC(=O)CN(C)c2nc(-c3cccnc3)nc3sc(C)c(C)c23)cc1 | 3.92 µM | IC50 (PBLUC_HILL_SLOPE 1.86E+03, PBLUC_R_SQUARED 0.436, read-out: LUCIFERASE INFECTION ASSAY - IC50): 3.92 µM
CCOC(=O)Cc1csc(SCC(=O)c2cc(C)n(-c3ccc4c(c3)OCO4)c2C)n1 | > 10 µM | IC50 (PBLUC_HILL_SLOPE 1.81, PBLUC_R_SQUARED 0.311, read-out: LUCIFERASE INFECTION ASSAY - IC50): 4.63 µM
Cc1ccc(S(=O)(=O)Nc2ccc(Nc3nccn4c(-c5ccc(F)cc5)cnc34)cc2)cc1 | 4.49 µM | IC50 (PBLUC_HILL_SLOPE 1.86, PBLUC_R_SQUARED 0.706, read-out: LUCIFERASE INFECTION ASSAY - IC50): 1.37 µM
Cc1ccc(C)c(-n2nnnc2SCC(=O)Nc2nc(-c3ccccn3)cs2)c1 | > 10 µM | IC50 (PBLUC_HILL_SLOPE 1.88, PBLUC_R_SQUARED 0.631, read-out: LUCIFERASE INFECTION ASSAY - IC50): 5.63 µM
COc1cc2[nH]c(CSc3nnc(-c4ccccc4F)n3C3CC3)nc(=O)c2cc1OC | > 10 µM | IC50 (PBLUC_HILL_SLOPE 1.81, PBLUC_R_SQUARED 0.0649, read-out: LUCIFERASE INFECTION ASSAY - IC50): > 10 µM
Fc1ccccc1-n1cnnc1SC(c1ccccc1)c1ccccc1 | 1.93 µM | IC50 (PBLUC_HILL_SLOPE 1.8, PBLUC_R_SQUARED 0.792, read-out: LUCIFERASE INFECTION ASSAY - IC50): 0.57 µM
COc1ccc2c(c1)c(-c1csc(NC(=O)c3ccccn3)n1)c(C)n2C | > 8.72 µM | IC50 (PBLUC_HILL_SLOPE 1.89, PBLUC_R_SQUARED 0.766, read-out: LUCIFERASE INFECTION ASSAY - IC50): > 8.72 µM
CC(C)n1ncc2cc(C(=O)Nc3nnc(-c4ccccn4)[nH]3)cnc21 | > 10 µM | IC50 (PBLUC_HILL_SLOPE 1.86, PBLUC_R_SQUARED 0.0303, read-out: LUCIFERASE INFECTION ASSAY - IC50): 6.07 µM
N#Cc1ccc(Sc2c(Cl)cccc2Cl)c(NC(=O)c2cccc(Cl)c2)c1 | > 7.61 µM | IC50 (PBLUC_HILL_SLOPE 1.82, PBLUC_R_SQUARED 0.326, read-out: LUCIFERASE INFECTION ASSAY - IC50): 6.05 µM

SMILES | IC90 | other results
O=C1Nc2ccc([N+](=O)[O-])cc2/C1=N\NC(=O)c1cc2ccccc2cc1O | > 10 µM | IC50 (PBLUC_HILL_SLOPE 1.88, PBLUC_R_SQUARED 0.548, read-out: LUCIFERASE INFECTION ASSAY - IC50): 4.86 µM
Fc1ccc(CNCC2(c3ccnc(-c4ccc(Cl)cc4)c3)CC2)cc1 | > 10 µM | IC50 (PBLUC_HILL_SLOPE 1.81, PBLUC_R_SQUARED 0.142, read-out: LUCIFERASE INFECTION ASSAY - IC50): > 10 µM
Cc1[nH]c(-c2ccccn2)nc(=O)c1CC(=O)OCc1nc2ccccc2s1 | > 10 µM | IC50 (PBLUC_HILL_SLOPE 1.8, PBLUC_R_SQUARED 0.582, read-out: LUCIFERASE INFECTION ASSAY - IC50): 7.29 µM
COc1cc(/C=C/c2ccc3ccccc3n2)ccc1OCC(=O)Nc1cccc(C(F)(F)F)c1 | > 10 µM | IC50 (PBLUC_HILL_SLOPE 1.81, PBLUC_R_SQUARED 0.402, read-out: LUCIFERASE INFECTION ASSAY - IC50): 8.14 µM
CC(C)(C)c1cc(C(=O)OCC(=O)N2CCCCC2)cc(C(C)(C)C)c1 | > 10 µM | IC50 (PBLUC_HILL_SLOPE 1.88, PBLUC_R_SQUARED 0.16, read-out: LUCIFERASE INFECTION ASSAY - IC50): 8.44 µM
CC(=O)c1ccc(-c2ccc(C(=O)N3CCc4sccc4C3)o2)cc1 | > 10 µM | IC50 (PBLUC_HILL_SLOPE 1.84, PBLUC_R_SQUARED 0.357, read-out: LUCIFERASE INFECTION ASSAY - IC50): 4.1 µM
COc1ccc2c(=O)c(C(=O)N(C)Cc3ccc(F)c(F)c3)c[nH]c2c1 | 4.7 µM | IC50 (PBLUC_HILL_SLOPE 1.79, PBLUC_R_SQUARED 0.658, read-out: LUCIFERASE INFECTION ASSAY - IC50): 1.38 µM
Cc1ccc(C(=O)C(C)Oc2ccc(NC(=O)c3cccs3)cc2)cc1 (stereo not given) | 1.47 µM | IC50 (PBLUC_HILL_SLOPE 1.89, PBLUC_R_SQUARED 0.795, read-out: LUCIFERASE INFECTION ASSAY - IC50): 0.461 µM
O=C(Nc1ccc(Cl)cc1)N1CCCN(Cc2ccc(Br)cc2F)CC1 | > 7.49 µM | IC50 (PBLUC_HILL_SLOPE 1.86, PBLUC_R_SQUARED 0.575, read-out: LUCIFERASE INFECTION ASSAY - IC50): 2.95 µM
N#CN=c1nc(/C=C/c2ccccc2Cl)[nH]c(-c2ccccc2O)n1 | 4.29 µM | IC50 (PBLUC_HILL_SLOPE 1.8, PBLUC_R_SQUARED 0.74, read-out: LUCIFERASE INFECTION ASSAY - IC50): 1.26 µM
CC(C)c1cccc(Nc2cc3c(cn2)nc(Nc2ccccc2)n3C)c1 | > 10 µM | IC50 (PBLUC_HILL_SLOPE 1.87, PBLUC_R_SQUARED 0.0991, read-out: LUCIFERASE INFECTION ASSAY - IC50): > 10 µM
Cc1nc2nc(C(F)(F)F)nn2c(C)c1CCC(=O)NCC(c1cccs1)N1CCC(C)CC1 (stereo not given) | > 10 µM | IC50 (PBLUC_HILL_SLOPE 1.88, PBLUC_R_SQUARED 0.575, read-out: LUCIFERASE INFECTION ASSAY - IC50): 6.51 µM
CCCCNc1nc2ccccc2n1CC(=O)Nc1ccc(S(=O)(=O)N2CCCC2)cc1 | > 10 µM | IC50 (PBLUC_HILL_SLOPE 1.82, PBLUC_R_SQUARED 0.488, read-out: LUCIFERASE INFECTION ASSAY - IC50): 3.67 µM
COc1ccccc1CN1CCN2C(=O)[C@@H](Cc3ccc(O)cc3)NC(=O)[C@H]2C1 | > 8.34 µM | IC50 (PBLUC_HILL_SLOPE 1.8, PBLUC_R_SQUARED 0.229, read-out: LUCIFERASE INFECTION ASSAY - IC50): 4.45 µM
CS(=O)(=O)c1ccc2c(c1)sc1nc(-c3ccccc3Cl)cn12 | > 10 µM | IC50 (PBLUC_HILL_SLOPE 1.82, PBLUC_R_SQUARED 0.22, read-out: LUCIFERASE INFECTION ASSAY - IC50): 4.47 µM
O=C1C(=O)N(CCN2CCOCC2)c2ccc(Cl)cc21 | 9.44 µM | IC50 (PBLUC_HILL_SLOPE 1.82, PBLUC_R_SQUARED 0.307, read-out: LUCIFERASE INFECTION ASSAY - IC50): 2.83 µM
c1ccc(-c2cc3c(Oc4ccc(-n5ccnc5)cc4)ncnc3s2)cc1 | > 10 µM | IC50 (PBLUC_HILL_SLOPE 1.81, PBLUC_R_SQUARED 0.315, read-out: LUCIFERASE INFECTION ASSAY - IC50): 6.93 µM
CC(C)(C)c1ccc(-n2nnnc2-c2ccccc2)cc1 | > 11.9 µM | IC50 (PBLUC_HILL_SLOPE 1.83, PBLUC_R_SQUARED 0.134, read-out: LUCIFERASE INFECTION ASSAY - IC50): 6.62 µM
O=C(NCCCNc1ccnc2cc(Cl)ccc12)c1ccccc1F | 6.19 µM | IC50 (PBLUC_HILL_SLOPE 1.88, PBLUC_R_SQUARED 0.797, read-out: LUCIFERASE INFECTION ASSAY - IC50): 1.93 µM
O=C(NNC(=O)c1csnn1)c1ccc(Cl)cc1 | 0.897 µM | IC50 (PBLUC_HILL_SLOPE 1.87, PBLUC_R_SQUARED 0.856, read-out: LUCIFERASE INFECTION ASSAY - IC50): 0.277 µM

Reference: ChEMBL document CHEMBL4483862, “Open-source discovery of chemical leads for next-generation chemoprotective antimalarials” (2018)
